Measured values taken from US20100105602A1, “TREATMENT OF INT[…] INFECTIONS” (Novozymes A/S, priority 2008, published 2010).

Assays:
[1] = test system: Staphylococcus aureus ATCC25923 (MSSA) in THP-1 macrophages; test: In vitro intracellular activity in infected THP-1 macrophages, S. aureus ATCC25923; assay type: cell-based; conditions: for Emax (95% CI): decrease in log CFU after 24 hours compared to original inoculum
Protocol: (§1) For studies of Plectasin, two strains of S. aureus were applied: ATCC25923 (MSSA) and E33235 (MSSA, axil, clinical isolate from Statens Serum Institute, Denmark).
(§2) For studies of Defensin2114, […] of S. aureus were used: ATCC25923 (MSSA), MRSA (clinical septicaemia isolate, Statens Serum Institute, ref. no. 1-15479) and VRSA2 (Pennsylvania HIP 11983).
(§3) Overnight culture of bacteria was opsonized for 45 min with human serum (AB positive, Lonza, USA). Afterwards the bacteria were tittered using a spectrophotometer (CECIL 2040) and THP-1 macrophages were counted and then infected with 4 bacteria/cell. THP-1 cells were cultured in RPMI 1640 medium supplemented with fetal calf serum.
(§4) The bacteria were incubated with cells for 1 hour at 37° C., CO2 5%, to allow phagocytosis.
(§5) After 1 hour of incubation the infected cells were incubated 45 min with Gentamicin (50 micrograms/mL) to eradicate remaining non-phagocytosed bacteria. To remove Gentamicin after incubation cells were washed 3× with PBS. After the third wash, cells were re-suspended in RPMI 1640 medium (+10% fetal calf serum) and Plectasin or Defensin2114 was added at desired concentrations (0-128×MIC). One sample was incubated with Gentamicin at 1×MIC for control of intracellular growth. In studies of Defensin2114 the activity was compared to that of vancomycin and daptomycin.
(§6) Cells were incubated in 6-well plates for 24 hours at 37° C., CO2 5%.
(§7) After incubation cells were washed in PBS and subsequently re-suspended in sterile water to release intracellular bacteria.
(§8) Samples were diluted regarding to the expected amount of CFU and spread on TSA plates and incubated at 35° C. overnight. After 24 hours incubation the CFU were counted.
(§9) The samples may be stored at −20° C. for up to one week. Samples were sonicated and proteins titered as described by Lowry et al. hereby obtaining results as CFU/mg protein. All samples were tested in triplicates.
(§10) In vitro intracellular dose-response studies: For analysis of dose-effect relationships, the Hill-equation (slope=1) was employed to calculate the maximal relative efficacy, Emax, static concentration (Cstatic) and goodness-of-fit. These parameters were determined using non-linear regression.

[2] = test system: Staphylococcus aureus MRSA (1-15479) in THP-1 macrophages; test: In vitro intracellular activity in infected THP-1 macrophages, MRSA (1-15479); assay type: cell-based; conditions: for Cstatic / Emax (95% CI): MRSA (1-15479), THP-1 macrophages, 24 hours
Protocol: as §2, §3, §4, §5, §6, §7, §8, §9, §10

[3] = test system: Staphylococcus aureus VRSA2 (Pennsylvania HIP 11983) in THP-1 macrophages; test: In vitro intracellular activity in infected THP-1 macrophages, VRSA2; assay type: cell-based; conditions: for Cstatic / Emax (95% CI): VRSA2, THP-1 macrophages, 24 hours
Protocol: as §2, §3, §4, §5, §6, §7, §8, §9, §10

[4] = test system: Staphylococcus aureus E33235 (MSSA) in THP-1 macrophages; test: In vitro intracellular activity in infected THP-1 macrophages, S. aureus E33235; assay type: cell-based; conditions: S. aureus E33235, THP-1 macrophages, 24 hours
Protocol: as §1, §3, §4
After 1 hour of incubation the infected cells were incubated 45 min with Gentamicin (50 micrograms/mL) to eradicate remaining non-phagocytosed bacteria. To remove Gentamicin after incubation cells were washed 3× with PBS. […]
Samples were diluted regarding to the expected amount of CFU and spread on TSA plates and incubated at 35° C. overnight. After 24 hours incubation the CFU were counted. […]
as §10

[5] = Kinetics study, serum, and PK/PD parameters of dosing regimens; assay type: in vivo, mice; set-up: AUC(free) / Peak / Cpeak: unit not given here; conditions: for AUC(free): free serum concentrations
Protocol: Animals were dosed from 4.25-34 mg/kg
The serum was separated and stored at −20° C. until analysis by LCMSMS using internal and external standards. Serum binding was calculated to 90%.
Pharmacokinetic parameters were determined through intrapolation from free serum concentrations using GraphPad Prism.

[6] = test system: Staphylococcus aureus E33235; test: Mouse peritonitis model, intra- and extracellular effect; assay type: in vivo, mice
Protocol: This Example presents an in vivo study of the efficacy of Plectasin against intracellular Staphylococcus aureus E33235 in an animal model of infection (peritonitis), including assessment of both intra- and extracellular effect. Staphylococcus aureus E33235 is a clinically isolated strain obtainable from Statens Serum Institut, Denmark.
Staphylococcus aureus E33235 was spread on 5% blood plates and incubated overnight at 37° C. at ambient air. A 10% w/v Mucin solution was prepared in NaCl. The solution was sterilized and pH adjusted to pH 7.0.
Colonies of Staphylococcus aureus were suspended in saline to approx. 10^8 CFU/mL (OD=0.13). A 1:1 dilution with the 10% Mucin stock solution was prepared making a solution of 5% Mucin and 5×10^7 CFU/mL.
A solution of 50 mg/mL lysostaphin was prepared in HBSS (Hanks Balanced Salt Solution).
Two hours before treatment (T=0) the mice were inoculated i.p. with 0.5 mL Staphylococcus aureus suspension (with 5% Mucin).
The injected dose volume was 0.6 or 0.3 mL/animal. The first dose was injected two hours after inoculation (T=2).
At T=2 and T=6 hours control animals were sacrificed and peritoneal wash performed. 24 hours after first treatment, the remaining treated animals were sacrificed. Peritoneal wash was performed after sacrifice of animals by cervical dislocation.
Negative control (cell free): Inoculum at 10^8 CFU/mL of S. aureus E 33235 (OD=0.13) in saline was prepared just before the last separation assay of the day. The negative control was handled exactly as the test samples. Microscopy and cell-count of the negative control are not shown. Each sample was handled as described in Table 6.
CFU counts from peritoneal fluid from treated animals were compared to PK/PD parameters to assess the correlation between intra- and extracellular effect of Plectasin to Cpeak, T>MIC and AUC/MIC.
Correlation (Hills) between the most predictive PK/PD-parameter. Effect was determined as the decrease in CFU in the peritoneal fluid 24 hours after the first treatment. Parameters were estimated by multiple regression analysis.

[7] = S. aureus ATCC25923, THP-1 macrophages, 24 hours, no apparent growth
[8] = S. aureus ATCC25923, THP-1 macrophages
[9] = S. aureus ATCC25923, THP-1 macrophages, 24 hours, Table 1
[10] = b.i.d. treatment with 34 mg/kg, peritoneal fluid, 24 hours after first treatment

Molecule: Defensin2114: defensin polypeptide shown as SEQ ID NO: 1; synthetic defensin derived from Plectasin (GFGCNGPWNEDDLRCHNHCKSIKGYKGGYCAKGGFVCKCY)
- Emax comparison, one-way ANOVA (Tukeys test) ([1]; ATCC25923): significantly lower Emax value than both daptomycin and vancomycin
- Cstatic [1, 7]: 0.8 ×MIC
- Emax (95% CI) [1, 8]: −1.51 log CFU
- Cstatic [2]: 1.1 ×MIC
- Emax (95% CI) [2]: −0.93 log CFU
- Emax comparison, one-way ANOVA (Tukeys test) ([2]; MRSA, P<0.01): significantly lower Emax value than vancomycin
- Emax comparison, one-way ANOVA (Tukeys test) ([3]; VRSA): No difference in Emax value between Defensin2114 and daptomycin
- Cstatic [3]: 2.3 ×MIC
- Emax (95% CI) [3]: −0.22 log CFU

Molecule: CN[C@H](CC(C)C)C(=O)N[C@H]1C(=O)N[C@@H](CC(N)=O)C(=O)N[C@H]2C(=O)N[C@H]3C(=O)N[C@H](C(=O)N[C@H](C(=O)O)c4cc(O)cc(O)c4-c4cc3ccc4O)[C@H](O)c3ccc(c(Cl)c3)Oc3cc2cc(c3O[C@@H]2O[C@H](CO)[C@@H](O)[C@H](O)[C@H]2O[C@H]2C[C@](C)(N)[C@H](O)[C@H](C)O2)Oc2ccc(cc2Cl)[C@H]1O [Vancomycin, reference compound]
- Cstatic [1, 7]: 2.9 ×MIC
- Emax (95% CI) [1, 8]: −0.64 log CFU
- Cstatic [2]: 6.2 ×MIC
- Emax (95% CI) [2]: −0.66 log CFU

Molecule: CC[C@H](C)[C@@H]1NC(=O)[C@H](CO)NC(=O)[C@H](CCCCN)NC(=O)[C@@H]2CSSC[C@@H](C(=O)N[C@@H](Cc3ccc(O)cc3)C(=O)O)NC(=O)[C@H](CCCCN)NC(=O)[C@@H]3CSSC[C@H](NC(=O)[C@H](CCC(N)=O)NC(=O)[C@H](CCSC)NC(=O)[C@H](CC(=O)O)NC(=O)[C@H](CC(=O)O)NC(=O)[C@H](CCC(=O)O)NC(=O)[C@H](CC(=O)O)NC(=O)[C@H](Cc4c[nH]c5ccccc45)NC(=O)[C@@H]4CCCN4C(=O)CNC(=O)[C@H](CC(N)=O)NC(=O)[C@@H](NC(=O)CNC(=O)[C@H](Cc4ccccc4)NC(=O)CN)CSSC[C@H](NC(=O)[C@H](Cc4ccc(O)cc4)NC(=O)CNC(=O)CNC(=O)[C@H](CCCCN)NC(=O)[C@H](Cc4ccc(O)cc4)NC(=O)CNC(=O)[C@H](CCCCN)NC1=O)C(=O)N[C@@H](C)C(=O)N[C@@H](CCCCN)C(=O)NCC(=O)NCC(=O)N[C@@H](Cc1ccccc1)C(=O)N[C@@H](C(C)C)C(=O)N3)C(=O)N[C@@H](Cc1c[nH]cn1)C(=O)N[C@@H](CC(N)=O)C(=O)N[C@@H](Cc1c[nH]cn1)C(=O)N2 [Plectasin]
- Cstatic [4]: 0.6 ×MIC
- Emax (CI) [4]: −0.97 log CFU
- Cstatic [1, 9]: 0.6 ×MIC
- Emax (CI) [1, 9]: −1.35 log CFU
- Peak ([5]; dose 4.25 mg/kg): 1.61
- AUC(free) ([5]; dose 4.25 mg/kg): 1.901
- Peak ([5]; dose 8.5 mg/kg): 2.32
- AUC(free) ([5]; dose 8.5 mg/kg): 3.955
- Peak ([5]; dose 17 mg/kg): 4.95
- AUC(free) ([5]; dose 17 mg/kg): 8
- Peak ([5]; dose 34 mg/kg): 5.99
- AUC(free) ([5]; dose 34 mg/kg): 13.25
- fraction unbound ([5]; mouse, serum, LCMSMS, read-out: Serum binding (converted)): 0.1
- Cpeak ([5]; regimen 1: 34 mg/kg, 1 dose in 24 hours): 5.99
- Cpeak ([5]; regimen 2: 17 mg/kg, 1 dose in 24 hours): 4.95
- Cpeak ([5]; regimen 3: 8.5 mg/kg, 1 dose in 24 hours): 2.32
- Cpeak ([5]; regimen 4: 4.25 mg/kg, 1 dose in 24 hours): 1.61
- Cpeak ([5]; regimen 5: 17 mg/kg, 2 doses in 24 hours): 5.99
- Cpeak ([5]; regimen 6: 8.5 mg/kg, 2 doses in 24 hours): 2.32
- Cpeak ([5]; regimen 7: 34 mg/kg, 3 doses in 24 hours): 5.99
- Cpeak ([5]; regimen 8: 4.25 mg/kg, 3 doses in 24 hours): 1.61
- Cpeak ([5]; regimen 9: 8.5 mg/kg, 4 doses in 24 hours): 2.32
- Cpeak ([5]; regimen 10: 8.5 mg/kg, 6 doses in 24 hours): 2.32
- Max Δ log Decrease in CFU Extracellularly [6, 10]: −2.55 (SD: 0.150) Δ log
- Max Δ log Decrease in CFU Intracellularly [6, 10]: −1.25 (SD: 0.058) Δ log
- effect in the mouse peritonitis model ([6]; s.c. treatment, S. aureus E33235 i.p.): showed both intra- and extracellular effect

Molecule: CCCCCCCCCC(=O)N[C@@H](Cc1c[nH]c2ccccc12)C(=O)N[C@H](CC(N)=O)C(=O)N[C@@H](CC(=O)O)C(=O)N[C@@H]1C(=O)NCC(=O)N[C@@H](CCCN)C(=O)N[C@@H](CC(=O)O)C(=O)N[C@H](C)C(=O)N[C@@H](CC(=O)O)C(=O)NCC(=O)N[C@H](CO)C(=O)N[C@@H]([C@H](C)CC(=O)O)C(=O)N[C@@H](CC(=O)c2ccccc2N)C(=O)O[C@@H]1C [Daptomycin, reference compound]
- Cstatic [1, 7]: 0.6 ×MIC
- Emax (95% CI) [1, 8]: −1.00 log CFU
- Cstatic [2]: 1.8 ×MIC
- Emax (95% CI) [2]: −0.85 log CFU
- Cstatic [3]: 1.3 ×MIC
- Emax (95% CI) [3]: −0.29 log CFU
